Data reported in article PMC3781954 (Archives of biochemistry and biophysics, 2013).

Columns and labels:
Rabbit CYP2E1 [1] = biological target: T1, Rabbit CYP2E1 (Oryctolagus cuniculus, UniProt P08682); assay: Inhibition of 4-nitrophenol oxidation to 4-nitrocatechol by reconstituted CYP2E1; conditions: for fold more potent than pyrazole: inhibition of CYP2E1 4-nitrophenol metabolism; for Inhibition Mechanism: most probable mechanism by DynaFit model discrimination, substrate 4-nitrophenol; for kcat2: turnover of the ESI complex, 95% confidence intervals in parentheses
T1 sequence (P08682 whole entry): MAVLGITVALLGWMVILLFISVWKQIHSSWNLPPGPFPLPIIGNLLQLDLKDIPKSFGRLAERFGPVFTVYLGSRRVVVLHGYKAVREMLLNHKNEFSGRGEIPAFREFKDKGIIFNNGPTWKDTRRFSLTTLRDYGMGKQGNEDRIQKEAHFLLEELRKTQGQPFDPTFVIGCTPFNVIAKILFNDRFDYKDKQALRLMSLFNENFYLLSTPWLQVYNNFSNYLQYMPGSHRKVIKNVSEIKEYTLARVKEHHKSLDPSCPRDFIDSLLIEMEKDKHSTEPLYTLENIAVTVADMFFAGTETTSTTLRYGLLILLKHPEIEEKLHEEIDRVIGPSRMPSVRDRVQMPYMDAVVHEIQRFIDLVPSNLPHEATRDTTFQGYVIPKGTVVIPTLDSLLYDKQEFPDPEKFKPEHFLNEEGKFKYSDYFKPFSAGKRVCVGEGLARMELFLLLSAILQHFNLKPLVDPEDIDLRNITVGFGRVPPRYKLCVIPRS

Rabbit CYP2E1 [2] = biological target: T1, Rabbit CYP2E1; assay: Spectral binding studies; conditions: for fold increase in affinity (Kd) relative to pyrazole: catalytic site
CYP2E1 [3] = biological target: CYP2E1 (Oryctolagus cuniculus, UniProt P08682); assay: Spectral binding studies; design: species or system rabbit; conditions: rabbit, pH 7.4
CYP2E1 (Oryctolagus cuniculus, UniProt P08682), sequence (P08682 whole entry): as above

CYP2E1 [4] = conditions: positive cooperativity; ref [4], [6]; cited from earlier work

| SMILES | Inhibition Mechanism (Rabbit CYP2E1 [1]) | kcat2 (Rabbit CYP2E1 [1]) | Kd (Rabbit CYP2E1 [2]) [µM] | further results |
| --- | --- | --- | --- | --- |
| c1n[nH]c2c1CCCC2 | Mixed, coop. substrate | 6.6 (2.3 to 9.6) min^−1 | – | fold more potent than pyrazole (Rabbit CYP2E1 [1]): 100 fold; fold increase in affinity (Kd) relative to pyrazole (Rabbit CYP2E1 [2]; spectral binding): 800 fold |
| Cc1cc(C)[nH]n1 [3,5-dimethylpyrazole] | – | – | – | inhibition of the 4-nitrophenol reaction (Rabbit CYP2E1 [1]; concentration as high as 250 µM (data not shown)): no inhibition; spectral shift upon binding (Rabbit CYP2E1 [2]; concentrations as high as 1000 µM): did not induce a spectral |
| Cc1cc[nH]n1 [3-methylpyrazole] | Mixed, coop. substrate | 8.7 (7.0 to 10) min^−1 | 11 | fold higher affinity for the free enzyme than the ES complex (Rabbit CYP2E1 [1]): two-fold; fold increase in affinity (Kd) relative to pyrazole (Rabbit CYP2E1 [2]; spectral binding): 2 fold; Kd (CYP2E1 [3]): 1700 µM |
| c1ccc(-c2cc[nH]n2)cc1 [3-phenylpyrazole] | Competitive | – | 22 | – |
| CCOc1ccc2ccc(=O)oc2c1 [7-ethoxycoumarin] | – | – | – | Hill coefficient (CYP2E1 [4]): 1.6 |
| c1ccc2[nH]cnc2c1 [benzimidazole] | – | – | 550 | – |
| c1ccc2[nH]ncc2c1 [indazole] | Mixed, coop. substrate | 11 (9.0 to 13) min^−1 | – | fold more potent than pyrazole (Rabbit CYP2E1 [1]): more than 200 fold; fold increase in affinity relative to tetrahydroindazole (Rabbit CYP2E1 [2]; spectral binding, aromatization of the second ring): about five-fold |
| Cc1cccc(C)c1 [m-xylene] | – | – | – | Hill coefficient (CYP2E1 [4]): 1.4 |
| c1cn[nH]c1 [pyrazole] | Mixed, coop. substrate | – | – | – |
